± gives the standard deviation of the averaged measurements.
Key:
Experiment in all cases: level (log10 ratio to DMSO vehicle control); higher = higher biomarker level / cell amount than vehicle control
Details in all cases: in DMSO
[1] = compound: C=CC(=O)OCC(F)(F)C(F)(F)C(F)(F)C(F)(F)C(F)(F)C(F)(F)C(F)(F)F [1H,1H-Perfluorooctyl acrylate]
Procedure: (§1)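 BioMAP Diversity Plus panel of 12 human primary cell co-culture systems (3C, 4H, LPS, SAg, BT, BF4T, BE3C, CASM3C, HDF3CGF, KF3CT, MyoF, Mphg). Compounds were added 1 h before stimulation and left for 24 h (MyoF 48 h; BT 72 h for soluble read-outs or 6 d for IgG). Biomarkers were read by ELISA, cytotoxicity by SRB, PBMC viability and proliferation by Alamar Blue. Each well value was divided by the mean of 8 DMSO control wells on the same plate and log10 transformed; duplicate blinded samples were tested at 4 concentrations.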

[2] = compound: O=C(O)C(F)(F)C(F)(F)C(F)(F)C(F)(F)C(F)(F)C(F)(F)F [Perfluoroheptanoic acid]
Procedure: as §1

[3] = compound: OCC(F)(F)OC(F)(F)C(F)(F)OC(F)(F)CO [1H,1H,8H,8H-Perfluoro-3,6-dioxaoctane-1,8-diol]
Procedure: as §1

[4] = compound: O=C(O)C(F)(F)C(F)(F)C(F)(F)F [Perfluorobutanoic acid]
Procedure: as §1

[5] = compound: O=C(O)C(F)(F)C(F)(F)F [Perfluoropropanoic acid]
Procedure: as §1

[6] = compound: O=C(O)C(F)(F)OC(F)(F)C(F)(F)OC(F)(F)C(=O)O [Perfluoro-3,6-dioxaoctane-1,8-dioic acid]
Procedure: as §1

[7] = compound: FC(F)(F)C(F)(F)C(F)(F)C(F)(F)C(F)(F)C(F)(F)C(F)(F)C(F)(F)CCS [2-(Perfluorooctyl)ethanthiol]
Procedure: as §1

Test System | level (log10) ([1]; 6700 nM) | level (log10) ([1]; 20000 nM) | level (log10) ([1]; 60000 nM) | level (log10) ([2]; 6700 nM) | level (log10) ([2]; 20000 nM) | level (log10) ([2]; 60000 nM) | level (log10) ([3]; 6700 nM) | level (log10) ([3]; 20000 nM) | level (log10) ([3]; 60000 nM) | level (log10) ([4]; 6700 nM) | level (log10) ([4]; 20000 nM) | level (log10) ([4]; 60000 nM) | level (log10) ([5]; 6700 nM) | level (log10) ([5]; 20000 nM) | level (log10) ([5]; 60000 nM) | level (log10) ([6]; 6700 nM) | level (log10) ([6]; 20000 nM) | level (log10) ([6]; 60000 nM) | level (log10) ([7]; 6700 nM) | level (log10) ([7]; 20000 nM)
HDF3CGF:Collagen III | 0.067 ± 0.035 | 0.042 ± 0.04 | -0.0245 ± 0.084 | -0.021 ± 0.011 | -0.0385 ± 0.033 | -0.013 ± 0.016 | -0.0035 ± 0.0078 | -0.0105 ± 0.0078 | 0.0165 ± 0.05 | -0.014 ± 0.011 | -0.004 ± 0.016 | 0.0135 ± 0.029 | -0.01 ± 0.1 | -0.0045 ± 0.032 | 0.048 ± 0.013 | -0.0115 ± 0.013 | 0.002 ± 0.011 | 0.0535 ± 0.012 | 0.0005 ± 0.033 | 0.002 ± 0.035
CASM3C:CD106/VCAM-1 | 0.007 ± 0.016 | 0.014 ± 0.0014 | -0.0055 ± 0.0092 | -0.0085 ± 0.0035 | -0.0135 ± 0.021 | 0.012 ± 0.054 | 0.0125 ± 0.0078 | -0.005 ± 0.0028 | 0.0015 ± 0.0035 | -0.007 ± 0.016 | -0.006 ± 0.0014 | -0.039 ± 0.018 | 0.027 ± 0.025 | 0.0445 ± 0.052 | 0.0445 ± 0.0078 | -0.005 ± 0.0014 | -0.003 ± 0.0042 | 0.0175 ± 0.042 | -0.0135 ± 0.005 | -0.014 ± 0.0099
KF3CT:CCL2/MCP-1 | -0.0195 ± 0.022 | -0.0195 ± 0.0021 | -0.016 ± 0.011 | 0.0165 ± 0.021 | 0.033 ± 0.024 | 0.0255 ± 0.053 | -0.0075 ± 0.026 | -0.022 ± 0.011 | 0.0235 ± 0.061 | -0.028 ± 0.0099 | -0.0325 ± 0.0035 | 0.0205 ± 0.023 | -0.0395 ± 0.0078 | -0.018 ± 0.028 | 0.0055 ± 0.06 | -0.0135 ± 0.016 | -0.011 ± 0.0057 | -0.0045 ± 0.013 | -0.0125 ± 0.011 | -0.0285 ± 0.0092
MyoF:SRB | -0.003 ± 0.011 | -0.012 ± 0.018 | -0.0335 ± 0.005 | -0.0005 ± 0.00071 | 0 ± 0.0085 | -0.003 ± 0.021 | -0.0045 ± 0.00071 | -0.001 ± 0.0014 | -0.017 ± 0.013 | 0.0005 ± 0.0035 | -0.001 ± 0.0085 | -0.0125 ± 0.0035 | 0.0015 ± 0.012 | 0.0005 ± 0.011 | -0.0015 ± 0.0092 | 0 ± 0.011 | -0.007 ± 0.0042 | 0.0065 ± 0.0078 | -0.0005 ± 0.0092 | 0.0025 ± 0.0021
MyoF:Collagen I | -0.0195 ± 0.018 | -0.03 | -0.0145 ± 0.011 | -0.0225 ± 0.011 | -0.006 | 0.0055 ± 0.043 | 0.0045 ± 0.021 | -0.0165 ± 0.052 | -0.015 ± 0.04 | 0.0075 ± 0.011 | 0.005 ± 0.042 | 0.0025 ± 0.012 | -0.0205 ± 0.011 | -0.0075 ± 0.026 | 0.0255 ± 0.047 | 0.0015 ± 0.015 | -0.005 ± 0.0099 | 0.002 ± 0.011 | -0.001 ± 0.042 | -0.0265 ± 0.029
CASM3C:IL-6 | -0.0135 ± 0.029 | -0.027 ± 0.048 | -0.0125 ± 0.03 | -0.0135 ± 0.0078 | -0.0205 ± 0.021 | 0.008 ± 0.085 | -0.017 ± 0.011 | -0.009 ± 0.0014 | 0.0215 ± 0.056 | -0.0295 ± 0.012 | -0.0175 ± 0.021 | 0.0115 ± 0.044 | -0.0205 ± 0.056 | -0.025 ± 0.0071 | -0.0045 ± 0.035 | -0.0065 ± 0.047 | -0.014 ± 0.027 | 0.0285 ± 0.00071 | 0.0235 ± 0.09 | 0.0465 ± 0.035
HDF3CGF:CXCL8/IL-8 | 0.0045 ± 0.0064 | 0.0045 ± 0.0064 | 0.0095 ± 0.0035 | -0.0055 ± 0.0078 | -0.0055 ± 0.0064 | 0.0095 ± 0.013 | 0.0115 ± 0.023 | 0.009 ± 0.024 | 0.015 ± 0.028 | -0.002 ± 0.0014 | -0.004 ± 0.0085 | 0.0015 ± 0.0021 | -0.0055 ± 0.0021 | 0.007 ± 0.011 | 0.017 ± 0.0057 | -0.0005 ± 0.0021 | 0.0135 ± 0.005 | 0.017 ± 0.0042 | -0.004 ± 0.0099 | -0.0095 ± 0.00071

Source: the supplement of paper PMC10331698
